The text below walks through data of ChEMBL document CHEMBL3045187, “Chemical weed control in seedbed sown onion (Allium cepa L.)” (Crop Prot, 2006).

For data set [1], the system named is Cyperus rotundus. Briefly: Herbicidal activity against Cyperus rotundus assessed as total dry weight at 2.5 kg/ha applied as spray before seed sowing (reference value: 4.1 MT/ha). The data set is classed as functional.
Data set [2] has as its system Chenopodiastrum murale. Put plainly: Herbicidal activity against Chenopodium murale assessed as total dry weight at 2.5 kg/ha applied as spray before seed sowing (reference value: 4.1 MT/ha). Type of data set: functional.
Data set [3] relates to Allium cepa. Put plainly: Phytotoxicity in Allium cepa (onion) seedling assessed as total fresh weight at 2.5 kg/ha applied as spray before seed sowing (reference value: 7.71 MT/ha). The data set is classed as organism-based. The following applies: in vivo, other.
Data set [4] relates to Chenopodiastrum murale. Briefly: Herbicidal activity against Chenopodium murale assessed as total fresh weight at 2.5 kg/ha applied as spray before seed sowing (reference value: 23.6 MT/ha). The data set is classed as functional.
Data set [5] deals with Cyperus rotundus. Briefly: Herbicidal activity against Cyperus rotundus assessed as total fresh weight at 2.5 kg/ha applied as spray before seed sowing (reference value: 23.6 MT/ha). Type of data set: functional.
Data set [6] relates to Malva sylvestris. Briefly: Herbicidal activity against Malva sylvestris assessed as total dry weight at 2.5 kg/ha applied as spray before seed sowing (reference value: 4.1 MT/ha). The data set is classed as functional.
Data set [7] has as its system Malva sylvestris. Briefly: Herbicidal activity against Malva sylvestris assessed as total fresh weight at 2.5 kg/ha applied as spray before seed sowing (reference value: 23.6 MT/ha). The data set is classed as functional.
The test system of data set [8] is Cyperus rotundus. Briefly: Herbicidal activity against Cyperus rotundus assessed as total fresh weight at 0.86 kg/ha applied as spray before seed sowing (reference value: 23.6 MT/ha). Type of data set: functional.
Data set [9] concerns Malva sylvestris. Put plainly: Herbicidal activity against Malva sylvestris assessed as total dry weight at 0.86 kg/ha applied as spray before seed sowing (reference value: 4.1 MT/ha). Type of data set: functional.
Data set [10] has as its system Malva sylvestris. Put plainly: Herbicidal activity against Malva sylvestris assessed as total fresh weight at 0.86 kg/ha applied as spray before seed sowing (reference value: 23.6 MT/ha). The data set is classed as functional.
The test system of data set [11] is Chenopodiastrum murale. Put plainly: Herbicidal activity against Chenopodium murale assessed as total fresh weight at 0.86 kg/ha applied as spray before seed sowing (reference value: 23.6 MT/ha). The data set is classed as functional.
The subject of data set [12] is Allium cepa. Briefly: Phytotoxicity in Allium cepa (onion) seedling assessed as total fresh weight at 0.86 kg/ha applied as spray before seed sowing (reference value: 7.71 MT/ha). Type of data set: organism-based. The following applies: in vivo, other.
Data set [13] relates to Cyperus rotundus. Briefly: Herbicidal activity against Cyperus rotundus assessed as total dry weight at 0.86 kg/ha applied as spray before seed sowing (reference value: 4.1 MT/ha). The data set is classed as functional.
For data set [14], the system named is Chenopodiastrum murale. Put plainly: Herbicidal activity against Chenopodium murale assessed as total dry weight at 0.86 kg/ha applied as spray before seed sowing (reference value: 4.1 MT/ha). The data set is classed as functional.
Data set [15] relates to Cyperus rotundus. Briefly: Herbicidal activity against Cyperus rotundus assessed as total dry weight at 1.5 kg/ha applied as spray before seed sowing (reference value: 4.1 MT/ha). The following applies: pooled result: one value given for 3 cell lines, strains, targets or settings. The data set is classed as functional.
For data set [16], the system named is Allium cepa. Briefly: Phytotoxicity in Allium cepa (onion) seedling assessed as total fresh weight at 1.5 kg/ha applied as spray before seed sowing (reference value: 7.71 MT/ha). The following applies: in vivo, other. Type of data set: organism-based.
Data set [17] has as its system Cyperus rotundus. Put plainly: Herbicidal activity against Cyperus rotundus assessed as total fresh weight at 1.5 kg/ha applied as spray before seed sowing (reference value: 23.6 MT/ha). The data set is classed as functional. The following applies: pooled result: one value given for 3 cell lines, strains, targets or settings.
In data set [18] the test system is Cyperus rotundus. Briefly: Herbicidal activity against Cyperus rotundus assessed as decrease in total dry weight at 0.6 kg/ha applied as spray during post-emergence relative to weed-infested control. The data set is classed as functional. The arrangement: scale not given: the % may be the effect or the level left.
In data set [19] the test system is Chenopodiastrum murale. Put plainly: Herbicidal activity against Chenopodium murale assessed as total fresh weight at 0.6 kg/ha applied as spray before seed sowing (reference value: 23.6 MT/ha). Type of data set: functional.
The test system of data set [20] is Cyperus rotundus. Put plainly: Herbicidal activity against Cyperus rotundus assessed as total fresh weight at 0.6 kg/ha applied as spray during post-emergence (reference value: 23.6 MT/ha). The data set is classed as functional.
Data set [21] relates to Chenopodiastrum murale. Briefly: Herbicidal activity against Chenopodium murale assessed as total fresh weight at 0.6 kg/ha applied as spray during postemergence (reference value: 23.6 MT/ha). Type of data set: functional.
Data set [22] has as its system Chenopodiastrum murale. Put plainly: Herbicidal activity against Chenopodium murale assessed as decrease in total dry weight at 0.6 kg/ha applied as spray during postemergence relative to weed-infested control. On the set-up: scale not given: the % may be the effect or the level left. The data set is classed as functional.
Data set [23] has as its system Malva sylvestris. Briefly: Herbicidal activity against Malva sylvestris assessed as total dry weight at 0.6 kg/ha applied as spray before seed sowing (reference value: 4.1 MT/ha). Type of data set: functional.
For data set [24], the system named is Allium cepa. Put plainly: Phytotoxicity in Allium cepa (onion) seedling assessed as total fresh weight at 0.6 kg/ha applied as spray before seed sowing (reference value: 7.71 MT/ha). The following applies: in vivo, other. Type of data set: organism-based.
Data set [25] concerns Cyperus rotundus. Put plainly: Herbicidal activity against Cyperus rotundus assessed as total dry weight at 0.6 kg/ha applied as spray before seed sowing (reference value: 4.1 MT/ha). The data set is classed as functional.
In data set [26] the test system is Malva sylvestris. Put plainly: Herbicidal activity against Malva sylvestris assessed as total fresh weight at 0.6 kg/ha applied as spray before seed sowing (reference value: 23.6 MT/ha). The data set is classed as functional.
Data set [27] concerns Chenopodiastrum murale. Put plainly: Herbicidal activity against Chenopodium murale assessed as total dry weight at 0.6 kg/ha applied as spray before seed sowing (reference value: 4.1 MT/ha). Type of data set: functional.
Data set [28] has as its system Cyperus rotundus. Put plainly: Herbicidal activity against Cyperus rotundus assessed as total fresh weight at 0.6 kg/ha applied as spray before seed sowing (reference value: 23.6 MT/ha). The data set is classed as functional.
The subject of data set [29] is Malva sylvestris. Put plainly: Herbicidal activity against Malva sylvestris assessed as total fresh weight at 0.6 kg/ha applied as spray during post-emergence (reference value: 23.6 MT/ha). Type of data set: functional.
In data set [30] the test system is Allium cepa. Put plainly: Phytotoxicity in Allium cepa (onion) seedling assessed as total fresh weight at 0.6 kg/ha applied as spray during post-emergence (reference value: 7.71 MT/ha). The data set is classed as organism-based. Conditions: in vivo, other.
For data set [31], the system named is Malva sylvestris. Briefly: Herbicidal activity against Malva sylvestris assessed as decrease in total dry weight at 0.6 kg/ha applied as spray during post-emergence relative to weed-infested control. The arrangement: scale not given: the % may be the effect or the level left. Type of data set: functional.
Data set [32] has as its system Allium cepa. Briefly: Phytotoxicity in Allium cepa (onion) seedling assessed as total fresh weight at 3.2 kg/ha applied as spray before seed sowing (reference value: 7.71 MT/ha). The data set is classed as organism-based. The following applies: in vivo, other.
The subject of data set [33] is Chenopodiastrum murale. Briefly: Herbicidal activity against Chenopodium murale assessed as total dry weight at 3.2 kg/ha applied as spray before seed sowing (reference value: 4.1 MT/ha). The data set is classed as functional.
Data set [34] concerns Cyperus rotundus. Briefly: Herbicidal activity against Cyperus rotundus assessed as total fresh weight at 3.2 kg/ha applied as spray before seed sowing (reference value: 23.6 MT/ha). The data set is classed as functional.
Data set [35] deals with Chenopodiastrum murale. Briefly: Herbicidal activity against Chenopodium murale assessed as total fresh weight at 3.2 kg/ha applied as spray before seed sowing (reference value: 23.6 MT/ha). The data set is classed as functional.
In data set [36] the test system is Cyperus rotundus. Briefly: Herbicidal activity against Cyperus rotundus assessed as total dry weight at 3.2 kg/ha applied as spray before seed sowing (reference value: 4.1 MT/ha). The data set is classed as functional.
Data set [37] deals with Malva sylvestris. Put plainly: Herbicidal activity against Malva sylvestris assessed as total dry weight at 3.2 kg/ha applied as spray before seed sowing (reference value: 4.1 MT/ha). The data set is classed as functional.
Data set [38] relates to Malva sylvestris. Put plainly: Herbicidal activity against Malva sylvestris assessed as total fresh weight at 3.2 kg/ha applied as spray before seed sowing (reference value: 23.6 MT/ha). Type of data set: functional.

For the compound `CSc1nc(NC(C)C)nc(NC(C)C)n1` [PROMETRYN], the Activity was 3.81 MT/ha in the data set on Cyperus rotundus [1]; 3.81 MT/ha in the data set on Chenopodiastrum murale [2]; 3.67 MT/ha in the data set on Allium cepa [3]; 19.8 MT/ha in the data set with Chenopodiastrum murale [4]; 19.8 MT/ha in the data set on Cyperus rotundus [5]; 3.81 MT/ha in the data set on Malva sylvestris [6]. The Activity in the data set with Malva sylvestris [7] was determined as 19.8 MT/ha.

For `CCCN(CCC)c1c([N+](=O)[O-])cc(C(F)(F)F)cc1[N+](=O)[O-]` [TRIFLURALIN], the Activity with Cyperus rotundus [8] stood at 14.8 MT/ha; in the data set on Malva sylvestris [9], 2.69 MT/ha; in the data set on Malva sylvestris [10] it was 14.8 MT/ha; in the data set on Chenopodiastrum murale [11] it was 14.8 MT/ha; in the data set on Allium cepa [12] it was 7.04 MT/ha; with Cyperus rotundus [13], 2.69 MT/ha. Also, the Activity in the data set on Chenopodiastrum murale [14] was 2.69 MT/ha.

For `CCC(CC)Nc1c([N+](=O)[O-])cc(C)c(C)c1[N+](=O)[O-]` [PENDIMETHALIN], the Activity in the data set with Cyperus rotundus [15] came out at 2.9 MT/ha; in the data set on Allium cepa [16], 7.42 MT/ha; in the data set with Cyperus rotundus [17], 17.5 MT/ha.

For `CCOc1cc(Oc2ccc(C(F)(F)F)cc2Cl)ccc1[N+](=O)[O-]` [OXYFLUORFEN], the Activity came to 68% with Cyperus rotundus [18]; 15.8 MT/ha in the data set with Chenopodiastrum murale [19]; 7.7 MT/ha in the data set on Cyperus rotundus [20]; 7.7 MT/ha in the data set on Chenopodiastrum murale [21]; 68% in the data set with Chenopodiastrum murale [22]; 2.93 MT/ha in the data set on Malva sylvestris [23]. Further, the Activity in the data set with Allium cepa [24] came out at 8.68 MT/ha; with Cyperus rotundus [25], 2.93 MT/ha; in the data set with Malva sylvestris [26], 15.8 MT/ha; with Chenopodiastrum murale [27] it was 2.93 MT/ha; with Cyperus rotundus [28], 15.8 MT/ha; in the data set with Malva sylvestris [29], 7.7 MT/ha. In addition, the values for the Activity with Allium cepa [30] and with Malva sylvestris [31] were 17.01 MT/ha and 68%, respectively.

Consider `Nc1cnn(-c2ccccc2)c(=O)c1Cl` [PYRAZON], for which the Activity is reported as 6.68 MT/ha with Allium cepa [32]; 1.94 MT/ha in the data set on Chenopodiastrum murale [33]; 9.5 MT/ha in the data set with Cyperus rotundus [34]; 9.5 MT/ha in the data set on Chenopodiastrum murale [35]; 1.94 MT/ha in the data set on Cyperus rotundus [36]; 1.94 MT/ha with Malva sylvestris [37]. Further, the Activity in the data set on Malva sylvestris [38] was 9.5 MT/ha.
